Data taken from patent US7141590B2, “Pharmaceutical uses and synthesis of nicotinanilide-N-oxides” (UCB SA, priority 2000, dated 2006).

What was measured:
[1] = biological target: T1, IL-8 type β receptor (IL-8Rβ) (Homo sapiens, UniProt P25025); assay: [125I] IL-8 binding assay (WGA-SPA beads, IL-8Rβ membranes); settings: 20 uM compound; [125I] IL-8, IL-8Rβ membranes
T1 construct: purchased BioSignal, Montreal, Canada; host or cells: Sf9 cells
T1 sequence (P25025 1-360): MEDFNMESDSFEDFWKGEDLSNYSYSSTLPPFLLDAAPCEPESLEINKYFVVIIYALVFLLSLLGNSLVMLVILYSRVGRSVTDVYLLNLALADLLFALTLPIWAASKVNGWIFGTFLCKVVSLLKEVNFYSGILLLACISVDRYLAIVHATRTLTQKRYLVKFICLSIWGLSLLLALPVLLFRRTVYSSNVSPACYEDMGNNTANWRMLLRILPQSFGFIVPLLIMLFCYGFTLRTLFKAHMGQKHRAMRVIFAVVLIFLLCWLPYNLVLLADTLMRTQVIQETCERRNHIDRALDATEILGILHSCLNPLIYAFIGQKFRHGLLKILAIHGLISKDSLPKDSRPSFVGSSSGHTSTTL
Experimental: IL-8 (human recombinant) was obtained from NEN Life Science Products, Inc., Boston, Mass., with specific activity of 2200 Ci/mmol. Recombinant human IL-8 was obtained from R&D Systems, Minneapolis, Minn. IL-8 type β receptor membranes were prepared from […] co-expressed with Gαi3β1γ2 proteins by BioSignal™, Montreal, Canada. Wheat Germ Agglutinin Scintillation Proximity Assay Beads were obtained from Amersham Pharmacia Biotech, Piscataway, N.J. All assays were performed in a 96-well, solvent resistant, white PicoPlate obtained from Packard Instruments. […] The assay was initiated by the addition of WGA-SPA beads in 25 mM Hepes (pH 7.4) containing 2 mM CaCl2 and 1 mM MgCl2. After 4–6 hours of gentle agitation at room temperature, the plate was counted on the Packard TopCount liquid scintillation counter.

[2] = system: polymorphonuclear neutrophils (PMNs); assay: GRO-α driven chemotaxis assay with PMNs (ChemoTx plate); assay type: cell-based; settings: 20 μM compound; 50 nM GRO-α, human PMNs
Experimental: Peripheral blood from healthy human volunteers was collected into heparin, diluted in an equal volume of PBS, layered over Ficoll-Paque Plus (Pharmacia Biotech, Uppsala, Sweden), and spun at 400×g for 30 min. The PMN rich fraction was removed and residual erythrocytes were lysed with hypotonic saline. The polymorphonuclear neutrophils (PMNs) were washed once with assay buffer (Dulbecco's PBS containing divalent cations and 0.1% endotoxin-free BSA), and resuspended at 1E7 cells/mL in the same buffer. PMNs were loaded with 5 μM calcein AM (Molecular Probes, Eugene, Oreg.), washed twice and resuspended in assay buffer.
Growth Regulatory Oncogene a (GRO-α) driven chemotaxis assays were performed according to the following protocol. […] Test compounds were dissolved in DMSO (100%) at 20 mM and diluted in assay buffer to the desired concentrations; final DMSO concentration was 0.2%. Neutrophil migration proceeded for 40 min at 37° C. in a humidified incubator with 5% CO2. After removing nonmigrated cells from the top of the plate, migrated cells were quantified by reading fluorescence on a Wallac Victor.
The ratio of the positive to negative controls represents the chemotactic index of the cells. The results from this assay are reported in Tables 3–5, under the column headings IL-8 and GRO-α, and under the sub-column headings ChTx (for chemotaxis).

Structure (SMILES) | IL-8 Binding @ 20 uM, % [1] | GRO-α ChTx @ 20 μM, % [2]
CN(C)c1ccc(C(=O)Nc2ccc(F)cc2)c[n+]1[O-] | * (“*” for % values of less than or equal to 40) | –
O=C(Nc1ccc(F)cc1)c1ccc(NCc2ccccc2)[n+]([O-])c1 | * (“*” for % values of less than or equal to 40) | * (“*” for % values of less than or equal to 40)
O=C(Nc1ccc(F)cc1)c1ccc(Nc2ccccc2)[n+]([O-])c1 | ** (“**” for % values greater than 40) | * (“*” for % values of less than or equal to 40)
CNc1ccc(C(=O)Nc2ccc(F)cc2)c[n+]1[O-] | ** (“**” for % values greater than 40) | ** (“**” for % values greater than 40)
O=C(Nc1ccc(F)cc1)c1ccc(-n2ccnc2)[n+]([O-])c1 | * (“*” for % values of less than or equal to 40) | * (“*” for % values of less than or equal to 40)
O=C(Nc1ccc(F)cc1)c1ccc(NCCO)[n+]([O-])c1 | * (“*” for % values of less than or equal to 40) | ** (“**” for % values greater than 40)
CCCCCNc1ccc(C(=O)Nc2ccc(F)cc2)c[n+]1[O-] | * (“*” for % values of less than or equal to 40) | ** (“**” for % values greater than 40)
O=C(Nc1ccc(F)cc1)c1ccc(N2CCCC2)[n+]([O-])c1 | * (“*” for % values of less than or equal to 40) | * (“*” for % values of less than or equal to 40)
Nc1ccc(C(=O)Nc2ccc(F)cc2)c[n+]1[O-] | * (“*” for % values of less than or equal to 40) | * (“*” for % values of less than or equal to 40)
COc1ccc(C(=O)Nc2ccc(F)cc2)c[n+]1[O-] | * (“*” for % values of less than or equal to 40) | ** (“**” for % values greater than 40)
CSc1ccc(C(=O)Nc2ccc(F)cc2)c[n+]1[O-] | ** (“**” for % values greater than 40) | ** (“**” for % values greater than 40)
CCSc1ccc(C(=O)Nc2ccc(F)cc2)c[n+]1[O-] | * (“*” for % values of less than or equal to 40) | * (“*” for % values of less than or equal to 40)
CC(C)S(=O)(=O)c1ccc(C(=O)Nc2ccc(F)cc2)c[n+]1[O-] | ** (“**” for % values greater than 40) | ** (“**” for % values greater than 40)
O=C(O)c1cccc(S(=O)(=O)c2ccc(C(=O)Nc3ccc(F)cc3)c[n+]2[O-])c1 | ** (“**” for % values greater than 40) | * (“*” for % values of less than or equal to 40)
O=C(O)CCS(=O)(=O)c1ccc(C(=O)Nc2ccc(F)cc2)c[n+]1[O-] | ** (“**” for % values greater than 40) | * (“*” for % values of less than or equal to 40)
O=C(Nc1ccc(F)cc1)c1ccc(S(=O)(=O)c2ccc(F)cc2)[n+]([O-])c1 | ** (“**” for % values greater than 40) | ** (“**” for % values greater than 40)
Cc1cccc(S(=O)(=O)c2ccc(C(=O)Nc3ccc(F)cc3)c[n+]2[O-])c1 | * (“*” for % values of less than or equal to 40) | ** (“**” for % values greater than 40)
Cc1ccc(C(=O)Nc2ccc(F)cc2)c[n+]1[O-] | *(2) (“*” for % values of less than or equal to 40) | * (“*” for % values of less than or equal to 40)
O=C(Nc1cccc(Br)c1)c1ccc(Cl)[n+]([O-])c1 | * (“*” for % values of less than or equal to 40) | ** (“**” for % values greater than 40)
O=C(Nc1ccc(F)c(C(F)(F)F)c1)c1ccc(Cl)[n+]([O-])c1 | * (“*” for % values of less than or equal to 40) | ** (“**” for % values greater than 40)
O=C(Nc1cccc(I)c1)c1ccc(Cl)[n+]([O-])c1 | * (“*” for % values of less than or equal to 40) | ** (“**” for % values greater than 40)
O=C(Nc1ccc(OC(F)(F)F)cc1)c1ccc(Cl)[n+]([O-])c1 | * (“*” for % values of less than or equal to 40) | * (“*” for % values of less than or equal to 40)
O=C(Nc1ccc(OCc2ccccc2)cc1)c1ccc(Cl)[n+]([O-])c1 | * (“*” for % values of less than or equal to 40) | ** (“**” for % values greater than 40)

Structure (SMILES) | IL-8 Binding @ 20 uM, % [1] | GRO-α ChTx @ 20 μM, % [2]
O=C(Nc1ccc(I)c(Cl)c1)c1ccc(Cl)[n+]([O-])c1 | * (“*” for % values of less than or equal to 40) | ** (“**” for % values greater than 40)
Cc1cc(NC(=O)c2ccc(Cl)[n+]([O-])c2)ccc1Br | * (“*” for % values of less than or equal to 40) | ** (“**” for % values greater than 40)
O=C(Nc1cc(C(F)(F)F)cc(C(F)(F)F)c1)c1ccc(Cl)[n+]([O-])c1 | * (“*” for % values of less than or equal to 40) | * (“*” for % values of less than or equal to 40)
O=C(Nc1cccc(OC(F)(F)F)c1)c1ccc(Cl)[n+]([O-])c1 | * (“*” for % values of less than or equal to 40) | * (“*” for % values of less than or equal to 40)
Cc1cc(F)ccc1NC(=O)c1ccc(Cl)[n+]([O-])c1 | * (“*” for % values of less than or equal to 40) | ** (“**” for % values greater than 40)
O=C(Nc1cccc(F)c1)c1ccc(Cl)[n+]([O-])c1 | * (“*” for % values of less than or equal to 40) | ** (“**” for % values greater than 40)
CC(C)(C)OC(=O)c1cccc(NC(=O)c2ccc(Cl)[n+]([O-])c2)c1 | – | ** (“**” for % values greater than 40)
O=C(O)c1cccc(NC(=O)c2ccc(Cl)[n+]([O-])c2)c1 | – | * (“*” for % values of less than or equal to 40)
COc1ccc(C(=O)O)cc1NC(=O)c1ccc(Cl)[n+]([O-])c1 | – | ** (“**” for % values greater than 40)
O=C(Nc1cc(F)c(F)c(C(=O)O)c1F)c1ccc(Cl)[n+]([O-])c1 | – | * (“*” for % values of less than or equal to 40)
O=C(Nc1ccc(O)c(C(=O)O)c1)c1ccc(Cl)[n+]([O-])c1 | – | * (“*” for % values of less than or equal to 40)
O=C(Nc1ccc(F)c(F)c1C(=O)O)c1ccc(Cl)[n+]([O-])c1 | – | ** (“**” for % values greater than 40)
CCCCc1ccc(NC(=O)c2ccc(Cl)[n+]([O-])c2)cc1 | – | ** (“**” for % values greater than 40)
COC(=O)c1ccc(NC(=O)c2ccc(Cl)[n+]([O-])c2)cc1 | – | ** (“**” for % values greater than 40)
O=C(Nc1cccc(F)c1F)c1ccc(Cl)[n+]([O-])c1 | – | ** (“**” for % values greater than 40)
CSc1ccccc1NC(=O)c1ccc(Cl)[n+]([O-])c1 | – | ** (“**” for % values greater than 40)
CSc1ccc(NC(=O)c2ccc(Cl)[n+]([O-])c2)cc1 | – | ** (“**” for % values greater than 40)
N#Cc1cccc(NC(=O)c2ccc(Cl)[n+]([O-])c2)c1 | – | ** (“**” for % values greater than 40)
COc1cc(NC(=O)c2ccc(Cl)[n+]([O-])c2)cc(OC)c1OC | – | * (“*” for % values of less than or equal to 40)
O=C(Nc1ccc(F)cc1)c1ccc(Cl)[n+]([O-])c1Cl | – | ** (“**” for % values greater than 40)
Cc1ccc(C(=O)Nc2ccc(F)cc2)c(Cl)[n+]1[O-] | – | * (“*” for % values of less than or equal to 40)
O=C(Nc1ccc(F)cc1)c1ccc(Br)[n+]([O-])c1 [Br, 6-BROMO-N-(4-FLUORO-PHENYL)-1-OXY-NICOTINAMIDE] | – | ** (“**” for % values greater than 40)
O=C(Nc1ccc(F)cc1)c1cc(Cl)c(Cl)[n+]([O-])c1 [drawing 126] | – | ** (“**” for % values greater than 40)
